The values below are quoted from earlier work in PMC8018465, “Antimicrobial activities of a small molecule compound II-6s against oral streptococci” (Journal of Oral Microbiology, 2021).

The series relates to methicillin-resistant Staphylococcus aureus (MRSA). Also noted: method as in PMID 30940910. The following applies: cited from earlier work.

Each structure is given as a SMILES string.

For `CC(C)(Cc1ccc2ccccc2c1)NC[C@@H](O)COc1cccc(Cl)c1C#N` [NPS-2143, reference compound], the “antimicrobial activity against MRSA” value was “bacteriostatic activity”.
